{"source": "patent US20140308733A1", "about": "“METHOD FOR INDUCING GERMINATION OF SPORE FORMING BACTERIUM” (CALPIS CO., LTD., priority 2011, published 2014)", "assay_in_all_cases": "Germination induction, change of turbidity (630 nm) of spore suspension", "format_in_all_cases": "cell-based", "settings_in_all_cases": "300 ppm; for turbidity (630 nm): 37° C., 150 rpm", "key": {"[1]": {"system": "Bacillus licheniformis (NBRC 12200)", "protocol": "(§1) It is possible to determine whether spores have germinated, after measuring an OD 630 value (turbidity at 630 nm) of the liquid culture, based on decrease in the value (Literature: Microbiology, (1950), 4, 3, 330-338). Briefly, bacterial cells after culturing are washed with distilled water and diluted with distilled water to OD 630=1.0, which is then mixed with an equal volume of a germination induction solution, and the turbidity at 630 nm is measured by a UV spectrophotometer at room temperature.\n(§2) TS culture media (Difco, Trypticase Soy Broth) were inoculated respectively with 11 strains listed in Table 1 and cultured at 50° C. with respect to Geobacillus stearothermophilus NBRC13737 and Aeribacillus pallidus TK6004 (FERM BP-08597), and at 37° C. with respect to the other 9 strains, until respective colonies were established. Then with respect to each of 11 strains, a loop full of a single colony was scratched by a platinum loop and suspended in 500 μL of sterilized water. In 1000 g of water was dissolved 8.0 g of a nutrient agar culture medium (Difco, Nutrient Broth), followed by high pressure steam sterilization (121° C., 15 min) to prepare a plate medium. The nutrient agar culture medium was smeared with each 100 μL of the suspension and cultured at 37° C. for 3 days.\n(§3) Then, bacterial cells were suspended using a platinum loop in 500 μL of sterilized water, and the bacterial suspension was subjected to a heat shock at 65° C. for 35 min. Each 100 μL of the heat-shocked bacterial suspension and a not-heat-shocked bacterial suspension were smeared on the TS culture media respectively and cultured at 50° C. or 37° C. for 1 day.\n(§4) After confirming the spore formation, the bacterial cells were collected by a bacteria spreader, suspended in 10 mL of sterilized distilled water, and then centrifuged (8340×g, 4° C., 15 min). The supernatant was removed and thereafter the bacterial cells were washed twice with 10 mL of sterilized water. After washing, the bacterial cells were suspended in 5 mL of sterilized water, and the suspension was filtrated by sterilized Kimwipes. The filtrate was centrifuged (8340×g, 4° C., 15 min) to remove the supernatant, and the rest was adjusted to the turbidity (at 630 nm) of 1.0 with sterilized water.\n(§5) After dissolving with stirring using a stirring rod with a propeller, filtration sterilization (0.45 μm filter) was conducted to prepare each 600 ppm-solution.\n(§6) Five hundred (500) μL of each solution and 500 μL of each bacterial spore suspension were mixed. […] Defining the time point of mixing as the reaction initiation (0 min), and continuing shaking (150 rpm) at 37° C., the turbidity (630 nm) was measured at 10, 20, 30, 40, 50, 60, 90, 120, and 180 min after the reaction initiation.\n(§7) Since the turbidity at 630 nm decreases by germination of spores, it has been known that the turbidity at 630 nm can be used to determine the germination rate."}, "[2]": {"system": "Bacillus licheniformis (NBRC 14206)", "protocol": "as §1, §2, §3, §4, §5, §6, §7"}, "[3]": {"system": "Geobacillus stearothermophilus (NBRC 13737)", "protocol": "as §1, §2\nas §3, with “day. As the results of the cultures, colony formation was confirmed also with respect to the heat-shocked bacterial suspensions, to confirm that spores were formed for all of 11 strains. Further, since the bacteria were not stained by Gram staining, it was reconfirmed that spores were formed.” for “day.”\nas §4, §5, §6, §7"}, "[4]": {"system": "Bacillus licheniformis (NBRC 12195)", "protocol": "as §1, §2\nas §3, with “day. As the results of the cultures, colony formation was confirmed also with respect to the heat-shocked bacterial suspensions, to confirm that spores were formed for all of 11 strains. Further, since the bacteria were not stained by Gram staining, it was reconfirmed that spores were formed.” for “day.”\nas §4, §5, §6, §7"}, "[5]": {"system": "Bacillus amyloliquefaciens (NBRC 3032)", "protocol": "as §1, §2\nas §3, with “day. As the results of the cultures, colony formation was confirmed also with respect to the heat-shocked bacterial suspensions, to confirm that spores were formed for all of 11 strains. Further, since the bacteria were not stained by Gram staining, it was reconfirmed that spores were formed.” for “day.”\nas §4, §5, §6, §7"}, "[6]": {"system": "Aeribacillus pallidus TK6004 (FERM BP-08597)", "protocol": "as §1, §2\nas §3, with “day. As the results of the cultures, colony formation was confirmed also with respect to the heat-shocked bacterial suspensions, to confirm that spores were formed for all of 11 strains. Further, since the bacteria were not stained by Gram staining, it was reconfirmed that spores were formed.” for “day.”\nas §4, §5, §6, §7"}, "[7]": {"system": "Bacillus subtilis C-3102 (FERM BP-1096)", "protocol": "as §1, §2\nas §3, with “day. As the results of the cultures, colony formation was confirmed also with respect to the heat-shocked bacterial suspensions, to confirm that spores were formed for all of 11 strains. Further, since the bacteria were not stained by Gram staining, it was reconfirmed that spores were formed.” for “day.”\nas §4, §5, §6, §7"}, "[8]": {"settings": "0 min after reaction initiation"}, "[9]": {"settings": "10 min after reaction initiation"}, "[10]": {"settings": "20 min after reaction initiation"}, "[11]": {"settings": "30 min after reaction initiation"}, "[12]": {"settings": "40 min after reaction initiation"}, "[13]": {"settings": "50 min after reaction initiation"}, "[14]": {"settings": "60 min after reaction initiation"}, "[15]": {"settings": "90 min after reaction initiation"}, "[16]": {"settings": "120 min after reaction initiation"}, "[17]": {"settings": "180 min after reaction initiation"}}}
{"molecule": "COc1cc(C(=O)O)ccc1O", "note": "[Vanillic acid, vanillic acid]", "values": [{"measurement": "turbidity (630 nm)", "setting": "[1]; [8]", "result": 0.602}, {"measurement": "turbidity (630 nm)", "setting": "[1]; [9]", "result": 0.574}, {"measurement": "turbidity (630 nm)", "setting": "[1]; [10]", "result": 0.567}, {"measurement": "turbidity (630 nm)", "setting": "[1]; [11]", "result": 0.542}, {"measurement": "turbidity (630 nm)", "setting": "[1]; [12]", "result": 0.523}, {"measurement": "turbidity (630 nm)", "setting": "[1]; [13]", "result": 0.488}, {"measurement": "turbidity (630 nm)", "setting": "[1]; [14]", "result": 0.464}, {"measurement": "turbidity (630 nm)", "setting": "[1]; [15]", "result": 0.414}, {"measurement": "turbidity (630 nm)", "setting": "[1]; [16]", "result": 0.362}, {"measurement": "turbidity (630 nm)", "setting": "[1]; [17]", "result": 0.267}, {"measurement": "germination confirmed by turbidity decrease", "setting": "[1]; up to 180 min", "result": "the turbidity decreased"}, {"measurement": "turbidity (630 nm)", "setting": "[2]; [8]", "result": 0.583}, {"measurement": "turbidity (630 nm)", "setting": "[2]; [9]", "result": 0.573}, {"measurement": "turbidity (630 nm)", "setting": "[2]; [10]", "result": 0.563}, {"measurement": "turbidity (630 nm)", "setting": "[2]; [11]", "result": 0.553}, {"measurement": "turbidity (630 nm)", "setting": "[2]; [12]", "result": 0.537}, {"measurement": "turbidity (630 nm)", "setting": "[2]; [13]", "result": 0.526}, {"measurement": "turbidity (630 nm)", "setting": "[2]; [14]", "result": 0.503}, {"measurement": "turbidity (630 nm)", "setting": "[2]; [15]", "result": 0.470}, {"measurement": "turbidity (630 nm)", "setting": "[2]; [16]", "result": 0.453}, {"measurement": "turbidity (630 nm)", "setting": "[2]; [17]", "result": 0.414}, {"measurement": "germination confirmed by turbidity decrease", "setting": "[2]; up to 180 min", "result": "the turbidity decreased"}, {"measurement": "turbidity (630 nm)", "setting": "[3]; [8]", "result": 0.584}, {"measurement": "turbidity (630 nm)", "setting": "[3]; [9]", "result": 0.590}, {"measurement": "turbidity (630 nm)", "setting": "[3]; [10]", "result": 0.531}, {"measurement": "turbidity (630 nm)", "setting": "[3]; [11]", "result": 0.510}, {"measurement": "turbidity (630 nm)", "setting": "[3]; [12]", "result": 0.467}, {"measurement": "turbidity (630 nm)", "setting": "[3]; [13]", "result": 0.445}, {"measurement": "turbidity (630 nm)", "setting": "[3]; [14]", "result": 0.402}, {"measurement": "turbidity (630 nm)", "setting": "[3]; [15]", "result": 0.291}, {"measurement": "turbidity (630 nm)", "setting": "[3]; [16]", "result": 0.209}, {"measurement": "turbidity (630 nm)", "setting": "[3]; [17]", "result": 0.099}, {"measurement": "germination confirmed by turbidity decrease", "setting": "[3]; up to 180 min", "result": "the turbidity decreased"}, {"measurement": "turbidity (630 nm)", "setting": "[4]; [8]", "result": 0.536}, {"measurement": "turbidity (630 nm)", "setting": "[4]; [9]", "result": 0.513}, {"measurement": "turbidity (630 nm)", "setting": "[4]; [10]", "result": 0.483}, {"measurement": "turbidity (630 nm)", "setting": "[4]; [11]", "result": 0.438}, {"measurement": "turbidity (630 nm)", "setting": "[4]; [12]", "result": 0.393}, {"measurement": "turbidity (630 nm)", "setting": "[4]; [13]", "result": 0.324}, {"measurement": "turbidity (630 nm)", "setting": "[4]; [14]", "result": 0.278}, {"measurement": "turbidity (630 nm)", "setting": "[4]; [15]", "result": 0.196}, {"measurement": "turbidity (630 nm)", "setting": "[4]; [16]", "result": 0.151}, {"measurement": "turbidity (630 nm)", "setting": "[4]; [17]", "result": 0.092}, {"measurement": "germination confirmed by turbidity decrease", "setting": "[4]; up to 180 min", "result": "the turbidity decreased"}, {"measurement": "turbidity (630 nm)", "setting": "[5]; [8]", "result": 0.519}, {"measurement": "turbidity (630 nm)", "setting": "[5]; [9]", "result": 0.496}, {"measurement": "turbidity (630 nm)", "setting": "[5]; [10]", "result": 0.485}, {"measurement": "turbidity (630 nm)", "setting": "[5]; [11]", "result": 0.435}, {"measurement": "turbidity (630 nm)", "setting": "[5]; [12]", "result": 0.385}, {"measurement": "turbidity (630 nm)", "setting": "[5]; [13]", "result": 0.359}, {"measurement": "turbidity (630 nm)", "setting": "[5]; [14]", "result": 0.316}, {"measurement": "turbidity (630 nm)", "setting": "[5]; [15]", "result": 0.278}, {"measurement": "turbidity (630 nm)", "setting": "[5]; [16]", "result": 0.237}, {"measurement": "turbidity (630 nm)", "setting": "[5]; [17]", "result": 0.210}, {"measurement": "germination confirmed by turbidity decrease", "setting": "[5]; up to 180 min", "result": "the turbidity decreased"}, {"measurement": "turbidity (630 nm)", "setting": "[6]; [8]", "result": 0.482}, {"measurement": "turbidity (630 nm)", "setting": "[6]; [9]", "result": 0.444}, {"measurement": "turbidity (630 nm)", "setting": "[6]; [10]", "result": 0.348}, {"measurement": "turbidity (630 nm)", "setting": "[6]; [11]", "result": 0.243}, {"measurement": "turbidity (630 nm)", "setting": "[6]; [12]", "result": 0.158}, {"measurement": "turbidity (630 nm)", "setting": "[6]; [13]", "result": 0.103}, {"measurement": "turbidity (630 nm)", "setting": "[6]; [14]", "result": 0.067}, {"measurement": "turbidity (630 nm)", "setting": "[6]; [15]", "result": 0.026}, {"measurement": "turbidity (630 nm)", "setting": "[6]; [16]", "result": 0.010}, {"measurement": "turbidity (630 nm)", "setting": "[6]; [17]", "result": 0.000}, {"measurement": "germination confirmed by turbidity decrease", "setting": "[6]; up to 180 min", "result": "the turbidity decreased"}, {"measurement": "turbidity (630 nm)", "setting": "[7]; [8]", "result": 0.604}, {"measurement": "turbidity (630 nm)", "setting": "[7]; [9]", "result": 0.575}, {"measurement": "turbidity (630 nm)", "setting": "[7]; [10]", "result": 0.551}, {"measurement": "turbidity (630 nm)", "setting": "[7]; [11]", "result": 0.543}, {"measurement": "turbidity (630 nm)", "setting": "[7]; [12]", "result": 0.505}, {"measurement": "turbidity (630 nm)", "setting": "[7]; [13]", "result": 0.483}, {"measurement": "turbidity (630 nm)", "setting": "[7]; [14]", "result": 0.461}, {"measurement": "turbidity (630 nm)", "setting": "[7]; [15]", "result": 0.432}, {"measurement": "turbidity (630 nm)", "setting": "[7]; [16]", "result": 0.390}, {"measurement": "turbidity (630 nm)", "setting": "[7]; [17]", "result": 0.266}, {"measurement": "germination confirmed by turbidity decrease", "setting": "[7]; up to 180 min", "result": "the turbidity decreased"}]}
